Experimental data published in patent US9890185B2, “Urea derivatives useful as kinase inhibitors” (Respivert Limited, priority 2013, dated 2018).

How the values were obtained:
PBMCs [1] = assay: Cell mitosis assay in PBMCs (assay g); type: cell-based; conditions: Homo sapiens, PBMC, test compound 5 μg/mL
In short: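 Human PBMCs from healthy donors, stimulated with 2% PHA for 48 hr, then exposed to test compounds for 20 hr, with demecolcine (0.1 μg/mL) added 2 hr before harvest. Cells fixed/permeabilised, stained for phospho-histone 3 and propidium iodide, and read by flow cytometry gated on lymphocytes. % mitosis inhibition vs 0.5% DMSO vehicle.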

PBMCs [2] = assay: LPS-induced IL-8 release in PBMC cells (assay b); type: cell-based, human; conditions: Homo sapiens, PBMC; LPS-stimulated PBMCs; read-out: IC50 Values for Inhibition of Cytokine Release, PBMCs IL-8
In short: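 Human PBMCs from healthy donors, isolated by density gradient, were pretreated with compound for 2 h and then stimulated with 1 ng/mL LPS (E. coli 0111:B4) for 24 h at 37° C, 5% CO2. Supernatant IL-8 and TNFα were measured by sandwich ELISA, and IC50 was taken from the dose-response curve.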

Molecule COc1c(NC(=O)Nc2ccc(Oc3ccnc(Nc4cccnc4)c3)c3ccccc23)cc(C(C)(C)C)cc1P(C)(C)=O [15(ad), 1-(5-(tert-butyl)-3-(dimethylphosphoryl)-2-methoxyphenyl)-3-(4-((2-(pyridin-3-ylamino)pyridin-4-yl)oxy)naphthalen-1-yl)urea] has an inhibition at 5 µg/mL (PBMCs [1]) of 31% and an IC50 (PBMCs [2]) of 3.7 nM.

In the case of COc1cc(F)cc(Nc2cc(Oc3ccc(NC(=O)Nc4cc(C(C)(C)C)cc(P(C)(C)=O)c4OC)c4ccccc34)ccn2)c1 [15(an), 1-(5-(tert-butyl)-3-(dimethylphosphoryl)-2-methoxyphenyl)-3-(4-((2-((3-fluoro-5-methoxyphenyl)amino)pyridin-4-yl)oxy)naphthalen-1-yl)urea], the inhibition at 5 µg/mL (PBMCs [1]) is reported as 50.3% and the IC50 (PBMCs [2]) is reported as 2.7 nM.

Molecule COc1c(NC(=O)Nc2ccc(Oc3ccnc(Nc4cnn(C)n4)n3)c3ccccc23)cc(C(C)(C)C)cc1P(C)(C)=O [15(x), 1-(5-(tert-butyl)-3-(dimethylphosphoryl)-2-methoxyphenyl)-3-(4-((2-((2-methyl-2H-1,2,3-triazol-4-yl)amino)pyrimidin-4-yl)oxy)naphthalen-1-yl)urea] has an inhibition at 5 µg/mL (PBMCs [1]) of 18.4% and an IC50 (PBMCs [2]) of 6.1 nM.

COc1c(CC(N)=O)cc(C(C)(C)C)cc1NC(=O)Nc1ccc(Oc2ccnc(NCc3ccccn3)c2)c2ccccc12 [38(d), 2-(5-(tert-Butyl)-2-methoxy-3-(3-(4-((2-((pyridin-2-ylmethyl)amino)pyridin-4-yl)oxy)naphthalen-1-yl)ureido)phenyl)acetamide] gave an inhibition at 5 µg/mL (PBMCs [1]) of 28.1% and an IC50 (PBMCs [2]) of 4.5 nM.

CNC(=O)Cc1cc(C(C)(C)C)cc(NC(=O)Nc2ccc(Oc3ccnc(Nc4cccc(OC)c4)c3)c3ccccc23)c1OC [38(h), 2-(5-(tert-Butyl)-2-methoxy-3-(3-(4-((2-((3-methoxyphenyl)amino)pyridin-4-yl)oxy)naphthalen-1-yl)ureido)phenyl)-N-methylacetamide] was tested, and the inhibition at 5 µg/mL (PBMCs [1]) was 30.3% and the IC50 (PBMCs [2]) was 2.7 nM.

COc1cc(Nc2cc(Oc3ccc(NC(=O)Nc4cc(C(C)(C)C)cc(CC(N)=O)c4OC)c4ccccc34)ccn2)ccn1 [38(k), 2-(5-(tert-Butyl)-2-methoxy-3-(3-(4-((2-((2-methoxypyridin-4-yl)amino)pyridin-4-yl)oxy)naphthalen-1-yl)ureido)phenyl)acetamide] was tested, and the inhibition at 5 µg/mL (PBMCs [1]) was 70.5% and the IC50 (PBMCs [2]) was 2.1 nM.

For COc1cc(CO)cc(Nc2cc(Oc3ccc(NC(=O)Nc4cc(C(C)(C)C)cc(CC(N)=O)c4OC)c4ccccc34)ccn2)c1 [38(m), 2-(5-(tert-Butyl)-3-(3-(4-((2-((3-(hydroxymethyl)-5-methoxyphenyl)amino)pyridin-4-yl)oxy)naphthalen-1-yl)ureido)-2-methoxyphenyl)acetamide], the inhibition at 5 µg/mL (PBMCs [1]) was 77.4% and the IC50 (PBMCs [2]) was 2 nM.

COc1cncc(Nc2cc(Oc3ccc(NC(=O)Nc4cc(C(C)(C)C)cc(CC(N)=O)c4OC)c4ccccc34)ccn2)c1 [38(n), 2-(5-(tert-butyl)-2-methoxy-3-(3-(4-((2-((5-methoxypyridin-3-yl)amino)pyridin-4-yl)oxy)naphthalen-1-yl)ureido)phenyl)acetamide] gave an inhibition at 5 µg/mL (PBMCs [1]) of 66.1% and an IC50 (PBMCs [2]) of 1.4 nM.

For COc1c(CC(N)=O)cc(C(C)(C)C)cc1NC(=O)Nc1ccc(Oc2ccnc(Nc3ccn(C)n3)c2)c2ccccc12 [38(o), 2-(5-(tert-Butyl)-2-methoxy-3-(3-(4-((2-((1-methyl-1H-pyrazol-3-yl)amino)pyridin-4-yl)oxy)naphthalen-1-yl)ureido)phenyl)acetamide], the inhibition at 5 µg/mL (PBMCs [1]) was 83.2% and the IC50 (PBMCs [2]) was 1.3 nM.

For COc1c(CNC(C)=O)cc(C(C)(C)C)cc1NC(=O)Nc1ccc(Oc2ccnc(NCc3ccccn3)c2)c2ccccc12 [38(q), N-(5-(tert-Butyl)-2-methoxy-3-(3-(4-((2-((pyridin-2-ylmethyl)amino)pyridin-4-yl)oxy)naphthalen-1-yl)ureido)benzyl)acetamide], the inhibition at 5 µg/mL (PBMCs [1]) was 82.1% and the IC50 (PBMCs [2]) was 1.4 nM.

COCCOCCOCCOc1cc(Nc2nccc(Oc3ccc(NC(=O)Nc4cc(C(C)(C)C)cc(C(=O)NCCN5CCOCC5)c4OC)c4ccccc34)n2)cc(OC)c1 [Example 8, 5-(tert-Butyl)-2-methoxy-3-(3-(4-((2-((3-methoxy-5-(2-(2-(2-methoxyethoxy)ethoxy)-ethoxy)phenyl)amino)pyrimidin-4-yl)oxy)naphthalen-1-yl)ureido)-N-(2-morpholinoethyl)-benzamide] was tested, and the inhibition at 5 µg/mL (PBMCs [1]) was 58.1% and the IC50 (PBMCs [2]) was 1.3 nM.

For COc1c(CP(C)(C)=O)cc(C(C)(C)C)cc1NC(=O)Nc1ccc(Oc2ccnc(Nc3ccccc3)c2)c2ccccc12 [Example 24, 1-(5-(tert-Butyl)-3-((dimethylphosphoryl)methyl)-2-methoxyphenyl)-3-(4-((2-(phenylamino)-pyridin-4-yl)oxy)naphthalen-1-yl)urea], the inhibition at 5 µg/mL (PBMCs [1]) was 37.9% and the IC50 (PBMCs [2]) was 3.1 nM.

Molecule COc1c(C[S+](C)[O-])cc(C(C)(C)C)cc1NC(=O)Nc1ccc(Oc2ccnc(Nc3ccccc3)c2)c2ccccc12 (stereo not drawn) [Example 25, 1-(5-(tert-Butyl)-2-methoxy-3-((methylsulfinyl)methyl)phenyl)-3-(4-((2-(phenylamino)pyridin-4-yl)oxy)naphthalen-1-yl)urea] has an inhibition at 5 µg/mL (PBMCs [1]) of 24.5% and an IC50 (PBMCs [2]) of 5.3 nM.

Work on COc1c(NC(=O)Nc2ccc(Oc3ccnc(Nc4cc(C)cc(C)c4)c3)c3ccccc23)cc(C(C)(C)C)cc1P(C)(C)=O [Example 28, 1-(5-(tert-Butyl)-3-(dimethylphosphoryl)-2-methoxyphenyl)-3-(4-((2-((3,5-dimethylphenyl)-amino)pyridin-4-yl)oxy)naphthalen-1-yl)urea] yielded an inhibition at 5 µg/mL (PBMCs [1]) of 54.4% and an IC50 (PBMCs [2]) of 2.5 nM.

Work on COc1cccc(Nc2cc(Oc3ccc(NC(=O)Nc4cc(C(C)(C)C)cc(CC(N)=O)c4OC)c4ccccc34)ccn2)c1 [Example 33, 2-(5-(tert-Butyl)-2-methoxy-3-(3-(4-((2-((3-methoxyphenyl)amino)pyridin-4-yl)oxy)naphthalen-1-yl)ureido)phenyl)acetamide] yielded an inhibition at 5 µg/mL (PBMCs [1]) of 31.3% and an IC50 (PBMCs [2]) of 1.7 nM.

With COc1c(CNC(C)=O)cc(C(C)(C)C)cc1NC(=O)Nc1ccc(Oc2ccnc(Nc3ccccc3)c2)c2ccccc12 [Example 35, N-(5-(tert-Butyl)-2-methoxy-3-(3-(4-((2-(phenylamino)pyridin-4-yl)oxy)naphthalen-1-yl)ureido)benzyl)acetamide] the inhibition at 5 µg/mL (PBMCs [1]) was 50.6% and the IC50 (PBMCs [2]) was 3.4 nM.

With COc1cc(Nc2cc(Oc3ccc(NC(=O)Nc4cc(C(C)(C)C)cc([S+](C)[O-])c4OC)c4ccccc34)ccn2)ccc1C(=O)NCCN1CCOCC1 (stereo not drawn) [Example 72, 4-((4-((4-(3-(5-(tert-Butyl)-2-methoxy-3-(methylsulfinyl)phenyl)ureido)naphthalen-1-yl)oxy)pyridin-2-yl)amino)-2-methoxy-N-(2-morpholinoethyl)benzamide] the inhibition at 5 µg/mL (PBMCs [1]) was 36.8% and the IC50 (PBMCs [2]) was 2.1 nM.

With COc1cc(Nc2cc(Oc3ccc(NC(=O)Nc4cc(C(C)(C)C)cc(CC(N)=O)c4OC)c4ccccc34)ccn2)ccc1C(=O)NCC(CO)(CO)CO [Example 73, 4-((4-((4-(3-(3-(2-Amino-2-oxoethyl)-5-(tert-butyl)-2-methoxyphenyl)ureido)naphthalen-1-yl)oxy)pyridin-2-yl)amino)-N-(3-hydroxy-2,2-bis(hydroxymethyl)propyl)-2-methoxybenzamide] the inhibition at 5 µg/mL (PBMCs [1]) was 19.8% and the IC50 (PBMCs [2]) was 1.5 nM.
